In patent US20140121164A1, “PREVENTION OF KIDNEY INJURY OR DISEASE” (University of Florida Research Foundation, priority 2012, published 2014):
Entries after “also recorded” stand apart in the source; their conditions may differ.

Key:
[1] = system: patients undergoing cardiac surgery on cardiopulmonary bypass (CPB); assay: CS007 trial: short and long term efficacy signals and safety of AP214 in patients undergoing cardiac surgery on cardiopulmonary bypass; format: in vivo, human; settings: for average serum creatinine values over time: through 168 hours post surgery; for outcomes as measured by the composite endpoint (all cause death, RRT, kidney function): 90 day post-operative period, vs placebo; for population distribution of extreme serum creatinine values: highest quartile; for kidney function as measured by estimated GFR: seven day post-operative period
Text: The CS007 trial was designed to study both short and long term efficacy signals (FIG. 5).
Primary Aims • Safety: Safety and tolerability vs. placebo • Efficacy: Max post-operative change in absolute values of SCr compared to baseline within the first 7 days after surgery or until discharge from hospital, whichever comes first vs. placebo.
Secondary Aims • Composite: • Assess the proportion of patients reaching the composite endpoint of death, need for RRT or a 25% reduction in renal function over a 90 day post-operative period vs. placebo. • AKIN: Assess post-operative incidence of AKI within 48 hours post-surgery • RIFLE: Assess post-operative incidence of AKI within first 7 days post-surgery. • SCr: Changes between surgery and postoperative day 7. • GFR: Changes at day 90 compared to baseline. • eGFR: Changes between surgery and postoperative day 7
Each dosage was provided over a period of 10 minutes. As used throughout this disclosure and unless specified otherwise, “μg/kg” refers to μg AP214 per kg bodyweight of the patient being treated.
Moreover, in the same double-blind study described in this Example, patients undergoing cardiac surgery on cardiopulmonary bypass (CPB) were randomized to placebo (PBO; n=26), AP214 given at either 600 μg/kg (n=25), or 800 μg/kg (n=26), divided into 3 bolus infusions at the predetermined intervals as described above. AKI was determined according to AKIN and RIFLE scores.

[2] = system: patients undergoing cardiac surgery; assay: Prevention of AKI by different dosage regimes of AP214 in patients undergoing cardiac surgery (CS005 protocol); format: in vivo, human
Procedure: Each of 12 patients undergoing cardiac surgery (the AP214 group) was dosed with 600 μg/kg AP214: 200 μg/kg at skin incision, 200 μg/kg at cross clamp release, and 200 μg/kg 6-hour after cross clamp release. Each dosage was provided over a period of 10 minutes. The placebo group included 13 patients undergoing cardiac surgery without AP214 infusion.
Objectives • trial objective was to assess the effect of AP214 on • 1) changes in serum creatinine, cystatin-C and carbamade, • 2) on eGFR and • 3) on the development of post-surgical acute kidney injury (AKI) • AKI also assessed (post-hoc analysis) by AKIN and RIFLE
Three different definitions of AKI were tested: • 1) 3 patients in the AP214 group developed AKI, in contrast to 7 patients in the placebo group who developed AKI. AKI is defined as in the CS005 protocol: • An absolute increase in serum creatinine of more than or equal to 26.4 μmol/l (0.3 mg/dl) or • A percentage increase in serum creatinine of more than or equal to 50% (1.5-fold from baseline) from Day 0-14 and/or • Urine output less than 0.5 mL/kg per hour for more than 6 hours. • 2) AKI according to the AKIN score as presented in FIG. 3a, and • 3) AKI according to the RIFLE score as presented in FIG. 3b.

subjects = assay: Evaluation of rate of infusion of AP214 (CS002); format: in vivo, human
Procedure: To establish a suitable rate of infusion of AP214 a set of patient trials were performed.
AP214 isotonic solution single ascending doses (25, 50 and 100 μg/kg) for intravenous infusion administered over 10 minutes, or placebo (saline infusion).
AP214 isotonic solution single doses (100 μg/kg over 1 minute; 100 μg/kg over 30 seconds; 200 μg/kg over 30 seconds) for intravenous infusion.

[3] = system: pigs after induction of complete warm ischemia in the kidney; settings: 200 μg/kg, 10 ml i.v. bolus during 1 minute, seven doses; cited from earlier work
[4] = 600 μg/kg bodyweight (3×200 μg/kg), i.v. over 10 min each, vs placebo
[5] = 600 μg/kg bodyweight, vs placebo

CSCC[C@H](NC(=O)[C@H](CO)NC(=O)[C@H](Cc1ccc(O)cc1)NC(=O)[C@H](CO)NC(=O)[C@H](CCCCN)NC(=O)[C@H](CCCCN)NC(=O)[C@H](CCCCN)NC(=O)[C@H](CCCCN)NC(=O)[C@H](CCCCN)NC(=O)[C@H](CCCCN)NC(C)=O)C(=O)N[C@@H](CCC(=O)O)C(=O)N[C@@H](Cc1c[nH]cn1)C(=O)N[C@@H](Cc1ccccc1)C(=O)N[C@@H](CCCNC(=N)N)C(=O)N[C@@H](Cc1c[nH]c2ccccc12)C(=O)NCC(=O)N[C@@H](CCCCN)C(=O)N1CCC[C@H]1C(=O)N[C@H](C(N)=O)C(C)C [AP214, Acetyl-Lysyl-L-lysyl-L-lysyl-L-lysyl-L-lysyl-L-lysyl-L-seryl-L-tyrosyl-L-seryl-L-methionyl-Lglutamyl-L-histidyl-L-phenylalanyl-L-arginyl-L-tryptophanyl-glycyl-L-lysyl-L-prolyl-L-valine amide]
average serum creatinine values over time ([1]; 600 μg/kg (3×200 μg/kg)): decreased average serum creatinine; also recorded: decreasing average serum creatinine values over time
outcomes as measured by the composite endpoint (all cause death, RRT, kidney function) ([1]; 600 μg/kg): reduction in outcomes with the 600 μg/kg dosage showing statistical significance; also recorded: reduction in negative outcomes
population distribution of extreme serum creatinine values ([1]; 600 μg/kg): reduction in serum creatinine values at the highest quartile
kidney function as measured by estimated GFR ([1]; 600 μg/kg): increased kidney function
degrees of acute kidney injury compared to placebo ([1]; 800 μg/kg): lesser degrees of acute kidney injury
patients scored as AKI by AKIN and RIFLE criteria ([1]; 800 μg/kg): decrease in patients scored as AKI
average serum creatinine values over time ([1]; 800 μg/kg (1×200, 1×400, 1×200 μg/kg)): decreased average serum creatinine; also recorded: decreasing average serum creatinine values over time
GFR change (reduction) at Day 90 compared to baseline ([1]; 800 μg/kg vs. placebo, Danish sites only): significantly lower GFR change (reduction)
outcomes as measured by the composite endpoint (all cause death, RRT, kidney function) ([1]; 800 μg/kg): reduction in negative outcomes
incidence of AKI compared with PBO by surgery type ([1]; 800 μg/kg, combined CABG and valve surgery, multiple valve surgery, chronic kidney disease and CABG (or valve surgery)): numerically lower incidence of AKI
population distribution of extreme serum creatinine values ([1]; 800 μg/kg): reduction in serum creatinine values at the highest quartile
kidney function as measured by estimated GFR ([1]; 800 μg/kg): increased kidney function
safety and tolerability ([1]; 600 and 800 μg/kg, each dosage over 10 minutes): safe and well tolerated
prevention of AKI as compared to the placebo ([2]; 150 μg/kg bodyweight (3×50 μg/kg), same dosing scheme): showed no prevention of AKI
patients who developed AKI (AKI as defined in the CS005 protocol) ([2]; 600 μg/kg (3×200 μg/kg), AP214 group of 12 patients, Day 0-14): 3 patients
development of AKI according to the RIFLE score and AKIN scores ([2]; 600 μg/kg bodyweight (3×200 μg/kg)): demonstrated prevention in the development of AKI
decrease in eGFR [2, 4]: prevented a decrease in eGFR
increase in serum creatinine [2, 4]: prevented
increase in carbamide [2, 5]: prevented
increase in cystatin C [2, 5]: prevented an increase in cystatin C
adverse events relative to 100 μg/kg over 30 sec and 1 minute (subjects; 200 μg/kg over 30 seconds): more adverse events
subjects reporting erythema (subjects; Group 2 (n=6), short infusion times): 6 subjects
adverse events (subjects; Group 2 (n=6), short infusion times: 100 μg/kg over 1 minute, 100 μg/kg over 30 seconds, 200 μg/kg over 30 seconds, i.v.): large number of adverse events
episodes of vomiting in one subject (subjects; Group 2, short infusion times): 8 episodes
tolerability (subjects; fast infusion rates): not well tolerated
adverse effects (subjects; slower infusion rate, 100 μg/kg over 10 minutes): did not show these adverse effects
tolerability (subjects; slower infusion rates (e.g., 10 minutes)): better tolerated
renoprotective effect [3]: provides a renoprotective effect
